Experimental data published in patent publication US12252524B2, “GIP/GLP1 co-agonist compounds” (Eli Lilly and Company, priority 2018, dated 2025).
Numbered stars: 1 amine (or outer) side, 2 acyl side, 3 side chain; on linkers, the order of the positions; unused ones are H or OH. Square brackets hold non-standard residues; d marks the D form. Side chains are listed from the residue outwards. Peptide text beside a SMILES is read from it. * marks the point of attachment. C20 diacid = O=C(O)CCCCCCCCCCCCCCCCCCC(=O)*; αMePhe(2-F) = C[C@](N)(Cc1ccccc1F)C(=O)O; γGlu = O=C(O)[C@H](CCC(=O)[*:2])N[*:1]; αMeF = C[C@](N)(Cc1ccccc1)C(=O)O; Aad = N[C@@H](CCCC(=O)O)C(=O)O; αMeL = CC(C)C[C@](C)(N)C(=O)O; AEEA = NCCOCCOCC(=O)O; Aib = CC(C)(N)C(=O)O

Assays:
[1] = molecular target: T1, gastric inhibitory peptide receptor (GIPR) (Homo sapiens, UniProt P48546); assay: cAMP pharmacological functional assay in presence of casein, hGIPR; assay type: cell-based; conditions: HEK293 cells expressing hGIPR, 0.1% Casein, geometric mean; read-out: hGIPR cAMP Rel EC50 nM (SEM, n)
T1 sequence (P48546 22-466): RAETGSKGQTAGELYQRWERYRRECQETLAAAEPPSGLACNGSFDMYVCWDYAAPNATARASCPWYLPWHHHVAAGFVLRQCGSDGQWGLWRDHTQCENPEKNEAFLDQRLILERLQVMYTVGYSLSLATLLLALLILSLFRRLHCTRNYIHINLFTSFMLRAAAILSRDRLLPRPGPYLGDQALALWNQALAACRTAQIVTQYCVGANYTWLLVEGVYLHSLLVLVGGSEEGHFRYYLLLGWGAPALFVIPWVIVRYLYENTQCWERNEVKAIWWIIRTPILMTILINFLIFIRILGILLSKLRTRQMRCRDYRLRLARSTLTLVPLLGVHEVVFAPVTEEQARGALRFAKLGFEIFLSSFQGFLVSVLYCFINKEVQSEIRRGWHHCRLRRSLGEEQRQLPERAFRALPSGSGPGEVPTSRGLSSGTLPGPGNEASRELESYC

[2] = molecular target: human GLP-1R (Homo sapiens, UniProt P43220); assay: [125I]-GLP-1 binding (SPA), human GLP-1 receptor; design: expressed in transfected cells; crude membranes; conditions: read-out: hGLP1R Ki, (nM) (SEM, n)
Outline: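 Frozen cell pellets are lysed on ice in hypotonic Tris buffer, pH 7.5, homogenized, and centrifuged to a membrane pellet resuspended at about 1 to 3 mg/mL. Binding is then measured in HEPES-based buffer at pH 7.4, and curves are fitted to give IC50 and Ki.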

[3] = molecular target: human GLP-1 receptor (GLP-1R) (Homo sapiens, UniProt P43220); assay: cAMP pharmacological functional assay in presence of casein, hGLP-1R; assay type: cell-based; conditions: HEK293 cells expressing hGLP-1R, 0.1% Casein, geometric mean; read-out: hGLP1R cAMP Rel EC50 nM (SEM, n)
[4] = molecular target: T2, human Gcg receptor (Homo sapiens, UniProt P47871); assay: [125I]-Glucagon binding (SPA), human Gcg receptor; conditions: read-out: hGLcgR Ki, nM (SEM, n)
T2 construct: expressed in transfected cells; crude membranes
Outline: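 Cell pellets were lysed in hypotonic Tris buffer, pH 7.5, homogenized, and spun at low then high speed to give crude membranes. Ki was derived from the fitted IC50.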

[5] = molecular target: T3, human GIP receptor (Homo sapiens, UniProt P48546); assay: [125I]-GIP binding (SPA), human GIP receptor; conditions: read-out: hGIPR Ki, nM (SEM, n)
T3 construct: expressed in transfected cells; crude membranes
T3 sequence (P48546 22-466): T1 sequence (P48546 22-466)

Sequence of human GLP-1 receptor (GLP-1R) (P43220 24-463): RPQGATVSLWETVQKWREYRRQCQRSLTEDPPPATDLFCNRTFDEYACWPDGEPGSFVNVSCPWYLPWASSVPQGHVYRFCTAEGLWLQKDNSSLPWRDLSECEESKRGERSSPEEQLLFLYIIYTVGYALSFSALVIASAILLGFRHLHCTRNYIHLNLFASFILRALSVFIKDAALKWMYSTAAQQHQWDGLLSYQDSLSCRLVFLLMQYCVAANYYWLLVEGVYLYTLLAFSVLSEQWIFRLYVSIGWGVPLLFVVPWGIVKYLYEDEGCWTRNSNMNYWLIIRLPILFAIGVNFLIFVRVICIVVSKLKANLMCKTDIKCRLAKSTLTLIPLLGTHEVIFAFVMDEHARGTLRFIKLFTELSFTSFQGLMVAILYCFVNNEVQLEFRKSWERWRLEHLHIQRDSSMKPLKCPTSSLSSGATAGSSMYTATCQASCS
Sequence of human GLP-1R (P43220 24-463): as above
T2 sequence (P47871 26-477): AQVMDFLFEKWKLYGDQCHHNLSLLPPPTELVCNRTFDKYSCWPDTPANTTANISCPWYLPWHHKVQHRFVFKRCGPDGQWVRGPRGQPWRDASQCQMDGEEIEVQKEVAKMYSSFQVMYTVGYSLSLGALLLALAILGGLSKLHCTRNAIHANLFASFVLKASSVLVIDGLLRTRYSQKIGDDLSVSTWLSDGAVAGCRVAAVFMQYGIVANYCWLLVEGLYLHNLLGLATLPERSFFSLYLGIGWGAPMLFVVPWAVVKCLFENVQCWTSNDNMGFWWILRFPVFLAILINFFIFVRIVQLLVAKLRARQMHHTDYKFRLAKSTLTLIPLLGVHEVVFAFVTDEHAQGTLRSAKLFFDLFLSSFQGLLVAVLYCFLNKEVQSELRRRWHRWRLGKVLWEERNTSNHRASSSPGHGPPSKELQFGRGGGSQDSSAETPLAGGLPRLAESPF

Structure (SMILES)	EC50 [1] [nM]	Ki [2] [nM]	EC50 [3] [nM]	Ki [4] [nM]	Ki [5] [nM]
CC[C@H](C)[C@H](NC(=O)[C@H](CC(C)C)NC(=O)[C@H](Cc1ccc(O)cc1)NC(=O)[C@H](CCC(=O)O)NC(=O)[C@@H](NC(=O)[C@H](Cc1ccccc1)NC(=O)C(C)(C)NC(=O)C(C)(C)NC(=O)[C@H](CCC(N)=O)NC(=O)[C@H](C)NC(=O)[C@H](CCCCNC(=O)COCCOCCNC(=O)COCCOCCNC(=O)CC[C@H](NC(=O)CCCCCCCCCCCCCCCCCCC(=O)O)C(=O)O)NC(=O)[C@H](CCCCN)NC(=O)[C@H](CC(=O)O)NC(=O)[C@H](CC(C)C)NC(=O)[C@](C)(CC(C)C)NC(=O)[C@@H](NC(=O)[C@H](CO)NC(=O)[C@H](Cc1ccc(O)cc1)NC(=O)[C@H](CC(=O)O)NC(=O)[C@H](CO)NC(=O)[C@@H](NC(=O)[C@](C)(Cc1ccccc1)NC(=O)[C@@H](NC(=O)CNC(=O)[C@H](CCC(=O)O)NC(=O)C(C)(C)NC(=O)[C@@H](N)Cc1ccc(O)cc1)[C@@H](C)O)[C@@H](C)O)[C@@H](C)CC)[C@@H](C)CC)C(=O)N[C@@H](CCC(=O)O)C(=O)NCC(=O)NCC(=O)N1CCC[C@H]1C(=O)N[C@@H](CO)C(=O)N[C@@H](CO)C(=O)NCC(=O)N[C@@H](C)C(=O)N1CCC[C@H]1C(=O)N1CCC[C@H]1C(=O)N1CCC[C@H]1C(=O)N[C@@H](CO)C(N)=O [Example 143] (H-Y[Aib]EGT[αMeF]TSDYSI[αMeL]LDKK([AEEA-AEEA-γGlu-C20 diacid])AQ[Aib][Aib]FIEYLIEGGPSSGAPPPS-NH2)	0.0515	1.15	0.0745	65.5	0.0304
CC[C@H](C)[C@H](NC(=O)[C@H](CC(C)C)NC(=O)[C@H](Cc1ccc(O)cc1)NC(=O)[C@H](CCC(=O)O)NC(=O)[C@@H](NC(=O)[C@H](Cc1ccccc1)NC(=O)C(C)(C)NC(=O)[C@H](Cc1c[nH]cn1)NC(=O)[C@H](CCC(N)=O)NC(=O)[C@H](C)NC(=O)[C@H](CCCCNC(=O)COCCOCCNC(=O)COCCOCCNC(=O)CC[C@H](NC(=O)CCCCCCCCCCCCCCCCCCC(=O)O)C(=O)O)NC(=O)[C@H](CCCCN)NC(=O)[C@H](CC(=O)O)NC(=O)[C@H](CC(C)C)NC(=O)[C@](C)(CC(C)C)NC(=O)[C@@H](NC(=O)[C@H](CO)NC(=O)[C@H](Cc1ccc(O)cc1)NC(=O)[C@H](CC(=O)O)NC(=O)[C@H](CO)NC(=O)[C@@H](NC(=O)[C@](C)(Cc1ccccc1)NC(=O)[C@@H](NC(=O)CNC(=O)[C@H](CCC(=O)O)NC(=O)C(C)(C)NC(=O)[C@@H](N)Cc1ccc(O)cc1)[C@@H](C)O)[C@@H](C)O)[C@@H](C)CC)[C@@H](C)CC)C(=O)N[C@@H](CCC(=O)O)C(=O)NCC(=O)NCC(=O)N1CCC[C@H]1C(=O)N[C@@H](CO)C(=O)N[C@@H](CO)C(=O)NCC(=O)N[C@@H](C)C(=O)N1CCC[C@H]1C(=O)N1CCC[C@H]1C(=O)N1CCC[C@H]1C(=O)N[C@@H](CO)C(N)=O [Example 144] (H-Y[Aib]EGT[αMeF]TSDYSI[αMeL]LDKK([AEEA-AEEA-γGlu-C20 diacid])AQH[Aib]FIEYLIEGGPSSGAPPPS-NH2)	0.0375	1.78	0.0608	77	0.0341
CC[C@H](C)[C@H](NC(=O)[C@H](CC(C)C)NC(=O)[C@H](Cc1ccc(O)cc1)NC(=O)[C@H](CCC(=O)O)NC(=O)[C@@H](NC(=O)[C@H](Cc1ccccc1)NC(=O)[C@H](C)NC(=O)C(C)(C)NC(=O)[C@H](CCC(N)=O)NC(=O)[C@H](C)NC(=O)[C@H](CCCCNC(=O)COCCOCCNC(=O)COCCOCCNC(=O)CC[C@H](NC(=O)CCCCCCCCCCCCCCCCCCC(=O)O)C(=O)O)NC(=O)[C@H](CCCCN)NC(=O)[C@H](CC(=O)O)NC(=O)[C@H](CC(C)C)NC(=O)[C@](C)(CC(C)C)NC(=O)[C@@H](NC(=O)[C@H](CO)NC(=O)[C@H](C)NC(=O)[C@H](CC(=O)O)NC(=O)[C@H](CO)NC(=O)[C@@H](NC(=O)[C@](C)(Cc1ccccc1)NC(=O)[C@@H](NC(=O)CNC(=O)[C@H](CCC(=O)O)NC(=O)C(C)(C)NC(=O)[C@@H](N)Cc1ccc(O)cc1)[C@@H](C)O)[C@@H](C)O)[C@@H](C)CC)[C@@H](C)CC)C(=O)N[C@@H](CCC(=O)O)C(=O)NCC(=O)NCC(=O)N1CCC[C@H]1C(=O)N[C@@H](CO)C(=O)N[C@@H](CO)C(=O)NCC(=O)N[C@@H](C)C(=O)N1CCC[C@H]1C(=O)N1CCC[C@H]1C(=O)N1CCC[C@H]1C(=O)N[C@@H](CO)C(N)=O [Example 145] (H-Y[Aib]EGT[αMeF]TSDASI[αMeL]LDKK([AEEA-AEEA-γGlu-C20 diacid])AQ[Aib]AFIEYLIEGGPSSGAPPPS-NH2)	0.0514	2.22	0.0427	158	0.0652
CC[C@H](C)[C@H](NC(=O)[C@H](CC(C)C)NC(=O)[C@H](Cc1ccc(O)cc1)NC(=O)[C@H](CCCC(=O)O)NC(=O)[C@@H](NC(=O)[C@H](Cc1ccccc1)NC(=O)[C@H](CCC(=O)O)NC(=O)C(C)(C)NC(=O)[C@H](CCC(N)=O)NC(=O)[C@H](C)NC(=O)[C@H](CCCCNC(=O)COCCOCCNC(=O)COCCOCCNC(=O)CC[C@H](NC(=O)CCCCCCCCCCCCCCCCCCC(=O)O)C(=O)O)NC(=O)[C@H](CCC(=O)O)NC(=O)[C@H](CC(=O)O)NC(=O)[C@H](CC(C)C)NC(=O)[C@](C)(CC(C)C)NC(=O)[C@@H](NC(=O)[C@H](CO)NC(=O)[C@H](Cc1ccc(O)cc1)NC(=O)[C@H](CC(=O)O)NC(=O)[C@H](CO)NC(=O)[C@@H](NC(=O)[C@](C)(Cc1ccccc1F)NC(=O)[C@@H](NC(=O)CNC(=O)[C@H](CCC(=O)O)NC(=O)C(C)(C)NC(=O)[C@@H](N)Cc1ccc(O)cc1)[C@@H](C)O)[C@@H](C)O)[C@@H](C)CC)[C@@H](C)CC)C(=O)N[C@@H](CCC(=O)O)C(=O)NCC(=O)NCC(=O)N1CCC[C@H]1C(=O)N[C@@H](CO)C(=O)N[C@@H](CO)C(=O)NCC(=O)N[C@@H](C)C(=O)N1CCC[C@H]1C(=O)N1CCC[C@H]1C(=O)N1CCC[C@H]1C(=O)N[C@@H](CO)C(N)=O [Example 147] (H-Y[Aib]EGT[αMePhe(2-F)]TSDYSI[αMeL]LDEK([AEEA-AEEA-γGlu-C20 diacid])AQ[Aib]EFI[Aad]YLIEGGPSSGAPPPS-NH2)	0.0304	4.47	0.0527	64.9	0.0981
CC[C@H](C)[C@H](NC(=O)[C@H](CC(C)C)NC(=O)[C@H](Cc1ccc(O)cc1)NC(=O)[C@@H](NC(=O)[C@@H](NC(=O)[C@H](Cc1ccccc1)NC(=O)[C@H](CCC(=O)O)NC(=O)C(C)(C)NC(=O)[C@H](CCC(N)=O)NC(=O)[C@H](C)NC(=O)[C@H](CCCCNC(=O)COCCOCCNC(=O)COCCOCCNC(=O)CC[C@H](NC(=O)CCCCCCCCCCCCCCCCCCC(=O)O)C(=O)O)NC(=O)[C@H](CCC(=O)O)NC(=O)[C@H](CC(=O)O)NC(=O)[C@H](CC(C)C)NC(=O)[C@](C)(CC(C)C)NC(=O)[C@@H](NC(=O)[C@H](CO)NC(=O)[C@H](Cc1ccc(O)cc1)NC(=O)[C@H](CC(=O)O)NC(=O)[C@H](CO)NC(=O)[C@@H](NC(=O)[C@](C)(Cc1ccccc1F)NC(=O)[C@@H](NC(=O)CNC(=O)[C@H](CCC(=O)O)NC(=O)C(C)(C)NC(=O)[C@@H](N)Cc1ccc(O)cc1)[C@@H](C)O)[C@@H](C)O)[C@@H](C)CC)[C@@H](C)CC)C(C)C)C(=O)N[C@@H](CCC(=O)O)C(=O)NCC(=O)NCC(=O)N1CCC[C@H]1C(=O)N[C@@H](CO)C(=O)N[C@@H](CO)C(=O)NCC(=O)N[C@@H](C)C(=O)N1CCC[C@H]1C(=O)N1CCC[C@H]1C(=O)N1CCC[C@H]1C(=O)N[C@@H](CO)C(N)=O [Example 149] (H-Y[Aib]EGT[αMePhe(2-F)]TSDYSI[αMeL]LDEK([AEEA-AEEA-γGlu-C20 diacid])AQ[Aib]EFIVYLIEGGPSSGAPPPS-NH2)	0.0711	26.1	0.0916	127	0.0708
